Consider 29 molecules from ChEMBL document CHEMBL1782019, “Pyridones as glucokinase activators: identification of a unique metabolic liability of the 4-sulfonyl-2-pyridone heterocycle” (Bioorg Med Chem Lett, 2009).

For series [1], the target named is T1, Hexokinase-4 (Homo sapiens, UniProt P35557).
T1 sequence (P35557 whole entry): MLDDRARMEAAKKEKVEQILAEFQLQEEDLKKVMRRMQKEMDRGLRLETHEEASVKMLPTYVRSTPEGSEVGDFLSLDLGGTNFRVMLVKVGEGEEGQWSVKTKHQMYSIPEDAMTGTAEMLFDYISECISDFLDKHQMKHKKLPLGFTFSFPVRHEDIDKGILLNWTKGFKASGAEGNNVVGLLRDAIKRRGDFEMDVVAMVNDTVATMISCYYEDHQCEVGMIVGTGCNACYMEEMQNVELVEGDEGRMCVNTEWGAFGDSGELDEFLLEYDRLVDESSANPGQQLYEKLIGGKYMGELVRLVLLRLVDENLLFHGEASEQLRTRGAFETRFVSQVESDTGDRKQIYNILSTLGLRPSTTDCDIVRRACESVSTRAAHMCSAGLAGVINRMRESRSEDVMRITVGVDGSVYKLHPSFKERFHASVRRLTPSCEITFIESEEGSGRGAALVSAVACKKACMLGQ
Description: Activation of human recombinant glucokinase using 6.5 mM glucose by spectrophotometry

Series [2] in a line: Hepatic clearance in rat liver microsome at 1 uM by LC/MS/MS analysis. In kind it is ADME. The following applies: liver microsomes. (Liver microsomes are a subcellular fraction often used to study metabolism.)
The nature of series [3]: Half life in human liver microsome at 1 uM by LC/MS/MS analysis. It counts as ADME. The note with it: liver microsomes.
Series [4] is described as follows: Half life in rat liver microsome at 1 uM by LC/MS/MS analysis. The note with it: liver microsomes. In kind it is ADME.
The nature of series [5]: Hepatic clearance in human liver microsome at 1 uM by LC/MS/MS analysis. In kind it is ADME. The note with it: liver microsomes.
Series [6] can be described thus: Clearance in Sprague-Dawley rat at 0.5 mg/kg, iv and 5 mg/kg, po. It counts as ADME, organism-based. The note with it: in vivo.
A short description of series [7]: Bioavailability in Sprague-Dawley rat at 0.5 mg/kg, iv and 5 mg/kg, po. The following applies: in vivo. It counts as ADME, organism-based.
Series [8] in a line: Fraction unbound in Sprague-Dawley rat at 0.5 mg/kg, iv and 5 mg/kg, po. The following applies: plasma. In kind it is ADME, organism-based.
Series [9] is described as follows: Half life in Sprague-Dawley rat at 0.5 mg/kg, iv and 5 mg/kg, po. In kind it is ADME, organism-based. The following applies: in vivo.

With `O=C(Nc1cnccn1)[C@H](CC1CCCC1)n1ccc(S(=O)(=O)C2CCC2)cc1=O`, it took 590 nM to reach a half-maximal effect in series [1] (EC50). This counts as sub-micromolar.

As to `Cc1ccc(NC(=O)[C@H](CC2CCCC2)n2cc(Cl)c(S(=O)(=O)C(C)C)cc2=O)nc1`, in series [1], the EC50 (usually the midpoint of the concentration-response curve) was 260 nM.

`Cc1ccc(NC(=O)[C@H](CC2CCCC2)n2cc(Cl)c(S(C)(=O)=O)cc2=O)nc1` showed an EC50 in series [1] of 480 nM.

`CC(C)S(=O)(=O)c1ccn([C@@H](CC2CCCC2)C(=O)Nc2ccccn2)c(=O)c1` returned an EC50 in series [1] of 600 nM.

In the case of `Cc1ccc(NC(=O)[C@H](CC2CCC(F)(F)CC2)n2ccc(S(=O)(=O)C(C)C)cc2=O)nc1`, a half-maximal effect in series [1] (EC50) was put at 160 nM. Moreover, the figures for the CLhep predicted at 1 µM in [2] and in series [5] were 36 mL/min/kg and 8 mL/min/kg, respectively. The values for the half-life at 1 µM in series [3] and in [4] were 73 min and 42 min, respectively.

Turning to `Cc1cnc(NC(=O)[C@H](CC2CCCC2)n2cc(Cl)c(S(=O)(=O)C(C)C)cc2=O)cn1`, in series [1], the EC50 turned out to be 700 nM. That is a sub-micromolar value.

Turning to `Cc1csc(NC(=O)c2cc(Sc3nccn3C)c(F)cc2N)n1`, in [1], the EC50 stood at 620 nM. The EC50 values of the last two molecules are within 1.5-fold of each other.

As for `Cc1ccc(NC(=O)[C@H](CC2CCCC2)n2ccc(S(=O)(=O)C(C)C)c(Cl)c2=O)nc1`, a half-maximal effect in series [1] (EC50) was put at 70 nM.

`Cc1cnc(NC(=O)[C@H](CC2CCCC2)n2ccc(S(C)(=O)=O)cc2=O)cn1`: the clearance in series [6] worked out at 337 mL/min/kg. The same molecule returned an EC50 in [1] of 3500 nM. The CLhep predicted at 1 µM in series [2] was 31 mL/min/kg; in series [5] it was under 5 mL/min/kg. The bioavailability – broadly, dose-corrected exposure relative to a reference, in per cent – in [7] turned out to be 2%. Also, the fraction unbound (in general, the share of the substance not bound to proteins or other matrix) in series [8] was determined as 0.35. The figures for the half-life at 1 µM in series [3] and in series [4] were over 120 min and 56 min, respectively. In addition, in series [9], the half-life (commonly how long it takes for the measured level to halve) is 12 min.

In the case of `CCS(=O)(=O)c1ccn([C@@H](CC2CCOCC2)C(=O)Nc2ccc(C)cn2)c(=O)c1`, in series [1], the EC50 amounted to 1500 nM. Further, the CLhep predicted at 1 µM is under 18 mL/min/kg in series [2] and under 5 mL/min/kg in series [5]. Besides, the half-life at 1 µM in series [3] and in [4] was over 120 min in each case.

In series [1], `CCS(=O)(=O)c1ccn([C@@H](CC2CCCC2)C(=O)Nc2ccc(C)cn2)c(=O)c1` had an EC50 of 500 nM.

Turning to `CC(C)S(=O)(=O)c1ccn([C@@H](CC2CCCC2)C(=O)Nc2ccn(C)n2)c(=O)c1`, the clearance in series [6] amounted to 164 mL/min/kg. The molecule also came in with an EC50 in series [1] of 910 nM. For the same molecule, the results for the CLhep predicted at 1 µM in [2] and in series [5] were 58 mL/min/kg and 10 mL/min/kg, respectively. The bioavailability in series [7] amounted to 8%. For the same molecule, the fraction unbound in series [8] stood at 0.59. In addition, the figures for the half-life at 1 µM in series [3] and in [4] were 93 min and 8 min, respectively. Further, the half-life in [9] is 12 min.

For `Cc1ccc(NC(=O)[C@H](CC2CCCC2)n2cc(C)c(S(=O)(=O)C(C)C)cc2=O)nc1`, in series [1], it took 160 nM to reach a half-maximal effect (EC50).

For the molecule `Cc1ccc(NC(=O)[C@H](CC2CCCC2)n2ccc(S(=O)(=O)C3CCC3)cc2=O)nc1`, in series [1], the concentration giving a half-maximal response (EC50) turned out to be 60 nM.

In [1], `Cn1ccc(NC(=O)[C@H](CC2CCCC2)n2ccc(S(=O)(=O)C3CC3)cc2=O)n1` showed an EC50 of 1500 nM.

Turning to `Cc1ccc(NC(=O)[C@H](CC2CCCC2)n2ccc(S(=O)(=O)C3CC3)cc2=O)nc1`, a half-maximal effect in series [1] (EC50) was put at 110 nM.

The molecule `CC(C)S(=O)(=O)c1ccn([C@@H](CC2CCCC2)C(=O)Nc2cc[nH]n2)c(=O)c1` came in with an EC50 in series [1] of 720 nM.

`Cc1ccc(NC(=O)[C@H](CC2CCCCC2)n2ccc(S(=O)(=O)C(C)C)cc2=O)nc1` came in with an EC50 in series [1] of 240 nM.

Molecule `Cn1ccc(NC(=O)[C@H](CC2CCCC2)n2ccc(S(=O)(=O)C3CCC3)cc2=O)n1` registered an EC50 in series [1] of 260 nM.

In series [1], `Cc1ccc(NC(=O)[C@H](CC2CCCC2)n2cc(C)c(S(C)(=O)=O)cc2=O)nc1` gave an EC50 of 440 nM.

In turn, `Cc1ccc(NC(=O)[C@H](CC2CCC2)n2ccc(S(=O)(=O)C(C)C)cc2=O)nc1` yielded an EC50 in series [1] of 670 nM.

As for `CC(C)S(=O)(=O)c1ccn([C@@H](CC2CCCC2)C(=O)Nc2ccc(C(F)(F)F)cn2)c(=O)c1`, the EC50 in series [1] came out at 330 nM. Compared with the last molecule, the EC50 is about 2-fold lower.

For `Cc1ccc(NC(=O)[C@H](CC2CCCC2)n2ccc(S(=O)(=O)C(C)C)cc2=O)nc1`, the EC50 in series [1] is 230 nM. The EC50 values of the last two molecules are within 1.5-fold of each other.

In turn, `Cc1ccc(NC(=O)[C@H](CC2CCCC2)n2ccc(S(C)(=O)=O)cc2=O)nc1` showed an EC50 in [1] of 560 nM. Also, the CLhep predicted at 1 µM is 58 mL/min/kg in series [2] and 5 mL/min/kg in [5]. The half-life at 1 µM in [3] is over 120 min; in series [4] it was 9 min.

In series [1], `Cc1ccc(NC(=O)[C@H](CC(C)C)n2ccc(S(=O)(=O)C(C)C)cc2=O)nc1` showed an EC50 of 510 nM.

In [1], `Cc1ccc(NC(=O)[C@H](Cc2ccccc2)n2ccc(S(=O)(=O)C(C)C)cc2=O)nc1` registered an EC50 of 3300 nM.

In the case of `CC(C)S(=O)(=O)c1ccn([C@@H](CC2CCCC2)C(=O)Nc2nccs2)c(=O)c1`, in series [1], it took 1300 nM to reach a half-maximal effect (EC50).

With `CS(=O)(=O)c1cc(=O)n([C@@H](CC2CCCC2)C(=O)Nc2ccc(Cl)cn2)cc1Cl`, in [1], it took 140 nM to reach a half-maximal effect (EC50).

With `O=C(Nc1cnccn1)[C@H](CC1CCCC1)n1ccc(S(=O)(=O)C2CC2)cc1=O`, the response in [1] was half-maximal at 1300 nM (EC50).
